Results published in patent US5227375A, “Aromatase inhibitors” (Endorecherche, Inc., priority 1990, dated 1993).
pKi: −log10 of the molar value.

Molecular target: T1, placental aromatase (Homo sapiens, UniProt P11511)
T1 construct: Microsomal aromatase was obtained from human placenta; from tissue; host or cells: human placenta microsomes
T1 sequence (P11511 1-503): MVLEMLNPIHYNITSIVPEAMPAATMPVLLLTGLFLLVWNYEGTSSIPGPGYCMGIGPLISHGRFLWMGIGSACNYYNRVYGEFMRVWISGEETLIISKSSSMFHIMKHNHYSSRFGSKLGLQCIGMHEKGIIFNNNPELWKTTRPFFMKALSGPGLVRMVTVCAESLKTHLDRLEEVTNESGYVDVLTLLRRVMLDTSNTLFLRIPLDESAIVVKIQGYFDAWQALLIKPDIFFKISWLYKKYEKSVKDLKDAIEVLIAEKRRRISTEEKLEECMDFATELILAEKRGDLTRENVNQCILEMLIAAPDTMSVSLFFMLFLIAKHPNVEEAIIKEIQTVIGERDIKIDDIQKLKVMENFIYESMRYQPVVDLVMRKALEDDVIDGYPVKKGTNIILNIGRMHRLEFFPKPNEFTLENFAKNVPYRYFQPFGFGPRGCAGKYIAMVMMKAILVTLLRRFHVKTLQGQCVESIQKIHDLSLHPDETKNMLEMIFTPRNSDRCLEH
Assay: Inhibition of placental aromatase activity (tritiated water release from [3H]androstenedione; modified Thompson and Siiteri assay)
Type: biochemical
Details: for aromatase inhibitory activity (in words): qualitative statement
Description: Microsomal aromatase was obtained from human placenta. A reaction vessel was prepared containing microsomes (0.124 mg protein/ml), NADPH (0.625 mM), [^3 H]androstenedione (0.33 μM) and increasing concentrations of the potential inhibitor being tested in buffer (800 μl) (0.1M KH2 PO4, pH 7.5). The conversion of androstenedione to estrone was allowed to proceed at 37° C. for 30 min and stopped by addition of 200 μl of charcoal suspension (25 mg/ml) in the same buffer. After centrifugation, tritiated water contained in 100 μl of supernatant was counted. The amount of tritiated water is proportional to the amount of transformed [^3 H] androstenedione.

SMILES	pKi	aromatase inhibitory activity (in words)
C=CC[C@@H]1CC2=CC(=O)CC[C@]2(C)[C@H]2CC[C@]3(C)C(=O)CC[C@H]3[C@H]12 [EM 173, 7α-allyl-4-androsten-3,17-dione]	6.70	showed aromatase inhibitory activity
C=CC[C@@H]1C[C@@H]2CC(=O)CC[C@]2(C)[C@H]2CC[C@]3(C)C(=O)CC[C@H]3[C@H]12 [EM 176, 7α-allyl-5β-androstan-3,17-dione]	6.05	showed aromatase inhibitory activity
C=CC[C@@H]1C[C@H]2CC(=O)CC[C@]2(C)[C@H]2CC[C@]3(C)C(=O)CC[C@H]3[C@H]12 [EM 198, 7α-allyl-5α-androstan-3,17-dione]	6.22	showed aromatase inhibitory activity
